Source: ChEMBL document CHEMBL1122565, “Quantitative structure-activity relationships of 6-anilinouracils as inhibitors of Bacillus subtilis DNA polymerase III” (J Med Chem, 1984)

Target: DNA polymerase III PolC-type (Bacillus subtilis (strain 168), UniProt P13267)
Assay: Inhibition constant against Bacillus subtilis DNA polymerase III (wild type).
Conditions: read-out: Log 1/Ki (converted)

Chain of DNA polymerase III PolC-type (P13267 whole entry): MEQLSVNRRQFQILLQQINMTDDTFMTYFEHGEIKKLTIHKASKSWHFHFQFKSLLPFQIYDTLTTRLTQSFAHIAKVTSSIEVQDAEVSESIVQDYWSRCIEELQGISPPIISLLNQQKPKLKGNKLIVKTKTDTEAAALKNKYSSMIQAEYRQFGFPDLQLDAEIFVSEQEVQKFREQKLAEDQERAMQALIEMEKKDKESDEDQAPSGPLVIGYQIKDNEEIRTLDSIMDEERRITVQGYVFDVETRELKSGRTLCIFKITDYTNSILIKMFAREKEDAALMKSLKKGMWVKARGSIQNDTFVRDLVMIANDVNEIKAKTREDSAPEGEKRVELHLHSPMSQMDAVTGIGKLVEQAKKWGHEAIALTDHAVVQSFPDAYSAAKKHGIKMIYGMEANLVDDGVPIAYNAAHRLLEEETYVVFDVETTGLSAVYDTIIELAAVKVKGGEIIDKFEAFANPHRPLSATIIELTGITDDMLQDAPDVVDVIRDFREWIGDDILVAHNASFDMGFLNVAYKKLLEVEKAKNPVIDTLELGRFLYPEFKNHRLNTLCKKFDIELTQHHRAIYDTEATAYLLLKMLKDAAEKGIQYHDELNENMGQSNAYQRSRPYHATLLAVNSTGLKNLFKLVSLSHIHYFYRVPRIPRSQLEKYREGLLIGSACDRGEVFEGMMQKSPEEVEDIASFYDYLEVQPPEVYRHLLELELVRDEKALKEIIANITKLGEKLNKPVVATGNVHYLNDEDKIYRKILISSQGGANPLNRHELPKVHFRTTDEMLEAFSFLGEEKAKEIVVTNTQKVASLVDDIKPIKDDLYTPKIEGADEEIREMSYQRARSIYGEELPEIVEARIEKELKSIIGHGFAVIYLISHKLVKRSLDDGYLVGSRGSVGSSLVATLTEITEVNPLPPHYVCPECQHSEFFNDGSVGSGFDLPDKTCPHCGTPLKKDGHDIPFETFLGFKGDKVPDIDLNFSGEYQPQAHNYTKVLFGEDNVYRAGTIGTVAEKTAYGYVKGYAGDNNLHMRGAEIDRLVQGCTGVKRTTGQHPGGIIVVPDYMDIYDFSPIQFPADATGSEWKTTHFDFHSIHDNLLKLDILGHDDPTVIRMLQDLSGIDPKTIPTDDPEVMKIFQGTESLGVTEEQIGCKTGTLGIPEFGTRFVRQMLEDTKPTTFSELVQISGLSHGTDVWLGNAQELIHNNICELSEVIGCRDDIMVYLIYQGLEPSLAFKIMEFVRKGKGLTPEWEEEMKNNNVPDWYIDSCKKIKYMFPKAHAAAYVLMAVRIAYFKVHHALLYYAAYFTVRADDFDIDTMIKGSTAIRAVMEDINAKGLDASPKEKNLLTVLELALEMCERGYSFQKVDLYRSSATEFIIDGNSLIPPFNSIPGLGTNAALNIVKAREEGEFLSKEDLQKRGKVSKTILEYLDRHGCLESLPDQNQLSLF

First: CCc1cc(Nc2cc(=O)[nH]c(=O)[nH]2)ccc1C
Second: CCc1ccc(Nc2cc(=O)[nH]c(=O)[nH]2)cc1C
The Ki of the first is 100-fold lower: 0.19 µM for the first, 19 µM for the second.

First: CCCCc1ccc(Nc2cc(O)nc(O)n2)cc1C
Second: CCCc1ccc(Nc2cc(O)nc(O)n2)cc1C
The Ki of the first is 7.1-fold higher: 692 µM for the first, 97.9 µM for the second.

Going from CCCCc1cccc(Nc2cc(O)nc(O)n2)c1 to CCCc1cccc(Nc2cc(O)nc(O)n2)c1, the Ki falls from 695 µM to 17 µM (41-fold).

Target: DNA polymerase III (Bacillus subtilis)
Assay: Inhibition constant against Bacillus subtilis azp-12 DNA polymerase III (mutant enzyme).
Conditions: not given

Going from Oc1cc(Nc2cccc(Br)c2)nc(O)n1 to Cc1cccc(Nc2cc(O)nc(O)n2)c1, the “Log 1/Ki” value falls from 4.66 to 3.75.

CC(=O)Nc1ccc(Nc2cc(O)nc(O)n2)cc1C and CC(=O)Nc1cc(Nc2cc(O)nc(O)n2)ccc1C are within 0.2 log units of each other in “Log 1/Ki” value: 2.81 for the first, 2.726 for the second.

Compared with OCc1cccc(Nc2cc(O)nc(O)n2)c1, Oc1cc(Nc2cccc(Cl)c2)nc(O)n1 is higher in “Log 1/Ki” value: 2.29 for the first, 4.38 for the second.

Going from Nc1ccc(Nc2cc(O)nc(O)n2)cc1 to COc1ccc(Nc2cc(O)nc(O)n2)cc1, the “Log 1/Ki” value rises from 2.409 to 3.921.

Compared with CCCc1ccc(Nc2cc(O)nc(O)n2)cc1, CCCc1ccc(Nc2cc(O)nc(O)n2)cc1C is higher in “Log 1/Ki” value: 4.278 for the first, 4.86 for the second.

Going from CCCCc1ccc(Nc2cc(O)nc(O)n2)cc1C to Cc1ccc(Nc2cc(O)nc(O)n2)cc1C, the “Log 1/Ki” value rises from 3.879 to 5.456.

First: Cc1cc(Nc2cc(O)nc(O)n2)ccc1N
Second: Cc1ccc(Nc2cc(O)nc(O)n2)cc1I
The “Log 1/Ki” value of the first is lower: 3.801 for the first, 6.553 for the second.
